Values quoted from earlier work, collected in patent US11661349B2, “Method for making coffee husk reducing agent” (Imam Abdulrahman Bin Faisal University, priority 2019, dated 2023).

Key:
Aspergillus flavus = details: A. flavus; from Elefanti et al. 2013
Aspergillus niger = details: A. niger; from Elefanti et al. 2013

OC(Cn1cncn1)(Cn1cncn1)c1ccc(F)cc1F [Flucanazole]
100 µg/mL: MFC (Minimum Fungicidal Concentration) (Aspergillus flavus) | MIC (Aspergillus flavus) | MFC (Minimum Fungicidal Concentration) (Aspergillus niger) | MIC (Aspergillus niger)
